Data on four compounds can be found in US8252835B2, “Compounds and methods for treating estrogen receptor-related diseases” (Shenogen Pharma Group Ltd., priority 2006, dated 2012).

Test [1] deals with MDA-MB-231 cells. Put plainly: MDA-MB-231 colony formation, crystal violet staining. Format: cell-based. The following applies: 10 days, FIG. 4.
Test [2] concerns MCF7 cells. Put plainly: MCF7 colony formation. Particulars: 10 days, FIG. 5a. Format: cell-based.
The subject of test [3] is human endometrial cancer Hec1A cells. The test is described as follows: MTT assay of Hec1A cell growth. Format: cell-based. The following applies: 24 hours. The protocol:
Human endometrial cancer Hec1A cells (ATCC No.: HTB-112™) were subseeded in a 96-well culture plate at a concentration of 5×10^3 cells/well and were cultured in DMEM containing high glucose medium (HyClone, SH30022.01B). […] The cells then were incubated with 0.5 mg/ml 3-(4,5-dimethylthiazol-2-yl)-2,5-diphenyltetrazolium bromide (MTT) for 4 hours at 37° C. wherein the MTT was reduced to insoluble purple formazan by the active mitochondrial reductase enzymes in the living cells. Then the excessive liquid MTT was removed from the reaction mixture. 150 μl of DMSO was added to dissolve the purple formazan into a colored solution. The optical density of the colored solution was measured at 490 nm using a microplate reader.
In general terms: Tetrazolium dyes change colour on reduction, which living cells bring about.

Test [4] deals with breast cancer cells. Particulars: background, literature (Liu 2005; Wang 2004; Ye 2005); cited from earlier work.
[5] abbreviates: zero to 25 μM, as concentration rose.

Each structure is given as a SMILES string.

Regarding `O=c1cc(-c2ccc(O)c(O)c2)oc2cc(O)cc(O)c12` [Luteolin], the “numbers of colonies of MDA-MB-231 cells” value was “decreased” in test [1] (5 μM) and “dropped to near zero” in test [1] (40 μM). Also, the “number of colonies of MCF7 cells” value in test [2] (setting [5]) is on record as “significantly reduced”.

Regarding `C[C@]12CC[C@@H]3c4ccc(O)cc4C[C@@H](CCCCCCCCC[S+]([O-])CCCC(F)(F)C(F)(F)F)[C@H]3[C@@H]1CC[C@@H]2O` (stereo partly drawn) [ICI 182,780], the results for the “numbers of colonies of MDA-MB-231 cells” value in test [1] (5 μM) and in test [1] (50 μM) were “decreased” and “remained at a high level”, respectively. Moreover, in test [2] (25 μM), the “number of colonies of MCF7 cells” value was “only a limited decrease”.

For the compound `CC/C(=C(\c1ccccc1)c1ccc(OCCN(C)C)cc1)c1ccccc1` [Tamoxifen], the “numbers of colonies of MDA-MB-231 cells” value is given as “decreased” in test [1] (5 μM) and “reduced to near zero” in test [1] (10 μM). In addition, the “number of colonies of MCF7 cells” value in test [2] (setting [5]) is recorded as “significantly reduced”. Moreover, the “effect on the growth of Hec1A cells” value in test [3] (concentrations below 3 μM) is reported as “stimulating the growth”. In addition, the “optical density at 490 nm (MTT)” value in test [3] (concentrations increased from 0.001 μM to 3 μM, FIG. 21) is listed as “rose”.

On to `CC(C)=CCc1c(O)cc(O)c2c(=O)c(O)c(-c3ccc(O)cc3)oc12` [desmethylicaritin, reference compound], for which, in test [4], the “proliferation of breast cancer cells” value is listed as “significantly increase”.
